Measured values as given in ChEMBL document CHEMBL5046296 (J Med Chem, 2022).
Converted amounts (≈) assume the structure as drawn. The source made the active and inactive calls. The rule behind the calls is not given here.

Legend:
[1] = Clearance in dog at 2 mg/kg, iv; type: ADME, organism-based, Canis lupus familiaris; conditions: in vivo
[2] = target: Serine/threonine-protein kinase LATS2 (Homo sapiens, UniProt Q9NRM7); assay: Inhibition of LATS2 (unknown origin)
[3] = Drug uptake in Spinal cord of CCI induced thermal hyperalgesia Sprague-Dawley rat model assessed as spinal occupancy at 1 mg/kg, po measured at 5.75 hrs post dose in presence of [3H]BMT-046091; type: ADME, organism-based; conditions: in vivo
[4] = Ratio of drug concentration in spinal cord to plasma of overnight fasted Sprague-Dawley rat model with streptozotocin induced diabetic peripheral neuropathic mechanical allodynia at 0.3 mg/kg, po measured at 5.5 hrs post dose; type: ADME, organism-based
[5] = Cmax in Sprague-Dawley rat plasma with CCI induced thermal hyperalgesia at 1 mg/kg, po measured at 5.75 hrs post dose; type: ADME, organism-based; parameters: route oral, dose 1 mg/kg, time 5.75 hrs
[6] = Displacement of 3H-LP-927443 from AAK1 in mouse brain membrane homogenate assessed as inhibition constant at 1 uM incubated for 1 hr by liquid scintillation counter analysis; type: cell membranes
[7] = Protein binding in human plasma assessed as unbound fraction at 10 uM measured after 5 hrs by LC-MS/MS analysis; type: ADME, cell-free
[8] = Lipophilicity, log D of the compound at pH 7.4; type: physicochemical; conditions: buffer
[9] = Ratio of drug concentration in spinal cord to plasma in Sprague-Dawley rat at 30 mg/kg, po measured at 5.25 hrs post dose; type: ADME, organism-based
[10] = Solubility of the compound in FaSSIF; type: physicochemical
[11] = Solubility of the compound in citrate at pH 4.4 using crystalline form of sample; type: physicochemical
[12] = Cmax in rat at 3 mg/kg, po; type: ADME, organism-based; parameters: route oral, dose 3 mg/kg; conditions: in vivo
[13] = Metabolic stability in cynomolgus monkey liver microsomes assessed as half life; type: ADME, Macaca fascicularis, Microsome
[14] = system: Rattus norvegicus; assay: Analgesic activity in streptozotocin induced diabetic peripheral neuropathic mechanical allodynia in overnight fasted Sprague-Dawley rat model assessed as efficacy at 1 mg/kg, po measured at 5.5 hrs post dose; type: functional
[15] = target: T1, Cytochrome P450 3A4 (Homo sapiens, UniProt P08684); assay: Time dependent inhibition of CYP3A4 (unknown origin) using MDZ as substrate measured at 30 mins; type: ADME
T1 sequence (P08684 whole entry): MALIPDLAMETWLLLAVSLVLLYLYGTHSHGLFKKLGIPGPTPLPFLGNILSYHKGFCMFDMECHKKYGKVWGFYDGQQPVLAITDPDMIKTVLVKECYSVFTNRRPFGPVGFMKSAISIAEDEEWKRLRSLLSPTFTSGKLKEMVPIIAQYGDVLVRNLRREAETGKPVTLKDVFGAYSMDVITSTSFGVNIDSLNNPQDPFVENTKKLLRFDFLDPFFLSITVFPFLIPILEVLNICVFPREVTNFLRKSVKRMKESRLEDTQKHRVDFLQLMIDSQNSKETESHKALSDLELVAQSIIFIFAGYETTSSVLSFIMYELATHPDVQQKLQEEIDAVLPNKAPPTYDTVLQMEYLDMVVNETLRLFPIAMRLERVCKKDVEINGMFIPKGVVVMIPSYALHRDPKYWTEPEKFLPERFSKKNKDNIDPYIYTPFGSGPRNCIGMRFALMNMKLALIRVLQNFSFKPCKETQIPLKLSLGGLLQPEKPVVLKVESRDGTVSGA

[16] = Cmax in monkey at 3 mg/kg, po; type: ADME, organism-based, Macaca mulatta; parameters: route oral, dose 3 mg/kg; conditions: rhesus monkey, in vivo
[17] = target: Solute carrier family 22 member 6 (Homo sapiens, UniProt Q4U2R8); assay: Inhibition of OAT1 (unknown origin)
Sequence of Solute carrier family 22 member 6 (Q4U2R8 whole entry): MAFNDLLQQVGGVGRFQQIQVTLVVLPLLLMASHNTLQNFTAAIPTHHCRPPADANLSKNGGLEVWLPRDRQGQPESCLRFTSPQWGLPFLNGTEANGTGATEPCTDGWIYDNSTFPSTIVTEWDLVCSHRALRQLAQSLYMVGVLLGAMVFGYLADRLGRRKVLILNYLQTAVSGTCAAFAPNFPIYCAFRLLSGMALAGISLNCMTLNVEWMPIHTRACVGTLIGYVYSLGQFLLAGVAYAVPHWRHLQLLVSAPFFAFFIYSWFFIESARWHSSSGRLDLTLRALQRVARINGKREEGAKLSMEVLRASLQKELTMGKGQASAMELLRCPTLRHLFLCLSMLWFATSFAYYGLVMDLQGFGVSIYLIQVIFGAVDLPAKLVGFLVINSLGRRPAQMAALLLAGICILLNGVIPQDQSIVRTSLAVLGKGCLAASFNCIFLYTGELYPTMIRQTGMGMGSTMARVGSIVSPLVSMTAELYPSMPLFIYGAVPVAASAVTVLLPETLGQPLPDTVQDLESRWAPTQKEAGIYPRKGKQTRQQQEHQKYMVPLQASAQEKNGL

[18] = target: ATP-binding cassette sub-family C member 2 (Homo sapiens, UniProt Q92887); assay: Inhibition of MRP2 (unknown origin)
[19] = AUC (infinity) in monkey at 3 mg/kg, po; type: ADME, organism-based, Macaca mulatta; parameters: route oral, time infinity, dose 3 mg/kg; conditions: rhesus monkey, in vivo
[20] = Drug concentration in naive Sprague-Dawley rat spinal cord at 3 mg/kg, po measured at 5.25 hrs post dose; type: ADME, organism-based; conditions: read-out: Ct
[21] = target: Cytochrome P450 2D6 (Homo sapiens, UniProt P10635); assay: Inhibition of CYP2D6 (unknown origin); type: ADME
Sequence of Cytochrome P450 2D6 (P10635 whole entry): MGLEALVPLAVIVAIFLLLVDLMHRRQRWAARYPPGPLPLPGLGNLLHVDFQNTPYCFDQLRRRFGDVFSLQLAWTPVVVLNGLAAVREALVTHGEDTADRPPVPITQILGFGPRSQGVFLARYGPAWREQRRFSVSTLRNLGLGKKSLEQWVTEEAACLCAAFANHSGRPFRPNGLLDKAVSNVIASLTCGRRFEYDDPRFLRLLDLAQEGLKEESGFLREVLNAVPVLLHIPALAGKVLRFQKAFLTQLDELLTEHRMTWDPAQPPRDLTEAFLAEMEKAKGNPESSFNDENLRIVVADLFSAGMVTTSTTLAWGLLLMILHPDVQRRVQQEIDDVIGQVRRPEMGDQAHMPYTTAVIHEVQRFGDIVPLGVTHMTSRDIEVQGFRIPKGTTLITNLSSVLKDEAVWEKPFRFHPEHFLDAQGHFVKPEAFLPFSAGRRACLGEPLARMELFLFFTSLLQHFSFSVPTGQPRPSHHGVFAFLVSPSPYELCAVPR

[22] = Cmax in overnight fasted Sprague-Dawley rat plasma with streptozotocin induced diabetic peripheral neuropathic mechanical allodynia at 3 mg/kg, po measured at 5.5 hrs post dose; type: ADME, organism-based; parameters: route oral, time 5.5 hrs, dose 3 mg/kg
[23] = Permeability of compound at pH 7.4 measured after 4 hrs by PAMPA assay; type: ADME; conditions: read-out: permeability
[24] = Ratio of drug concentration in spinal cord to plasma in CCI induced thermal hyperalgesia Sprague-Dawley rat model at 1 mg/kg, po measured at 5.75 hrs post dose; type: ADME, organism-based
[25] = Protein binding in mouse plasma assessed as unbound fraction at 10 uM measured after 5 hrs by LC-MS/MS analysis; type: ADME, cell-free
[26] = target: T1, Cytochrome P450 3A4; assay: Time dependent inhibition of CYP3A4 (unknown origin) using TST as substrate measured at 5 mins; type: ADME
[27] = Protein binding in mouse brain assessed as unbound fraction at 1 uM incubated for 4 hrs by LC-MS/MS analysis; type: ADME, tissue-based
[28] = target: Voltage-gated inwardly rectifying potassium channel KCNH2 (Homo sapiens, UniProt Q12809); assay: Inhibition of human ERG by patch clamp assay; type: toxicity
Sequence of Voltage-gated inwardly rectifying potassium channel KCNH2 (Q12809 whole entry): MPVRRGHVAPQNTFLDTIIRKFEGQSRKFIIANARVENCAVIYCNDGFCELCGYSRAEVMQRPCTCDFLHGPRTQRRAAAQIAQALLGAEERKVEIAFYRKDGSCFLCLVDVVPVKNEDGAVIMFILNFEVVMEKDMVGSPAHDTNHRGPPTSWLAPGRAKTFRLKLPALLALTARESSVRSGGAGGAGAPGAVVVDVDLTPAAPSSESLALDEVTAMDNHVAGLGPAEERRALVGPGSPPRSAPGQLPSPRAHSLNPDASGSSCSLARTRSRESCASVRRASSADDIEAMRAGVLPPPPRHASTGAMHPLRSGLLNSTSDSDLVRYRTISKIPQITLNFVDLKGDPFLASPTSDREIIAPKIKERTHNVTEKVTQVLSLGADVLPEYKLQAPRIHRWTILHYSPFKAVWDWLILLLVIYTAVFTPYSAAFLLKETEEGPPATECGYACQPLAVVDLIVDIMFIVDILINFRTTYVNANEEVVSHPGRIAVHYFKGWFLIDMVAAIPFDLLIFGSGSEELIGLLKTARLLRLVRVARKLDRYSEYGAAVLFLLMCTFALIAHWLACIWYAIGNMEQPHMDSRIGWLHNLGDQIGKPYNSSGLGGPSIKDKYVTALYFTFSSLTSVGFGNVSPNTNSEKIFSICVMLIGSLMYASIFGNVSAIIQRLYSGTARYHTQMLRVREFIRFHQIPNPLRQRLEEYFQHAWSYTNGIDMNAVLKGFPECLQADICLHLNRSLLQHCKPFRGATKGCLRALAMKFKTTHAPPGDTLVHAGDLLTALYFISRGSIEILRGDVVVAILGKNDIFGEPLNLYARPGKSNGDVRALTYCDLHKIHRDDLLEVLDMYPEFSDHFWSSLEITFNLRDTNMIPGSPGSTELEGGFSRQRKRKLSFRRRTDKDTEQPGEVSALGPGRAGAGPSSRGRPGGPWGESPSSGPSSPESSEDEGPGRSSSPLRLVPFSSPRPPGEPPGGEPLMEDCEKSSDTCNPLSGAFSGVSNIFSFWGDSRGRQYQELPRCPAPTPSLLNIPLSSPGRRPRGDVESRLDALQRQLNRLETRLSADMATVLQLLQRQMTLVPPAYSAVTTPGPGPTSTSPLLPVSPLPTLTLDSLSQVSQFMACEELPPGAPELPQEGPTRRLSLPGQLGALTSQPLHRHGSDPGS

[29] = Ratio of drug concentration in spinal cord to plasma in Sprague-Dawley rat at 3 mg/kg, po measured at 5.25 hrs post dose; type: ADME, organism-based
[30] = Oral bioavailability in monkey at 3 mg/kg; type: ADME, organism-based, Macaca mulatta; conditions: rhesus monkey, in vivo
[31] = Tmax in rat at 3 mg/kg, po; type: ADME, organism-based; conditions: in vivo
[32] = Cmax in mouse at 3 mg/kg, po; type: ADME, organism-based; parameters: route oral, dose 3 mg/kg; conditions: in vivo
[33] = target: Hepatic sodium/bile acid cotransporter (Homo sapiens, UniProt Q14973); assay: Inhibition of NTCP (unknown origin)
Sequence of Hepatic sodium/bile acid cotransporter (Q14973 whole entry): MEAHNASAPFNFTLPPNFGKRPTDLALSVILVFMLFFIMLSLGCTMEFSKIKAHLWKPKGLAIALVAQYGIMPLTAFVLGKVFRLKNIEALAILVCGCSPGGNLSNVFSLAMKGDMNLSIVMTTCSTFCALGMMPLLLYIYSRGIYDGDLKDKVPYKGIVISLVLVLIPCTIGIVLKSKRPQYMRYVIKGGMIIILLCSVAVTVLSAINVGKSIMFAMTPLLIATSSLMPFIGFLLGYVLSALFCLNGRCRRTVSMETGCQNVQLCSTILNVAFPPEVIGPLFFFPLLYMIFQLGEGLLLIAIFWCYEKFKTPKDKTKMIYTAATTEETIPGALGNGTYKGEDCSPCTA

[34] = system: Rattus norvegicus; assay: Analgesic activity in streptozotocin induced diabetic peripheral neuropathic mechanical allodynia in overnight fasted Sprague-Dawley rat model assessed as efficacy at 3 mg/kg, po measured at 5.5 hrs post dose; type: functional
[35] = target: Cytochrome P450 1A2 (Homo sapiens, UniProt P05177); assay: Inhibition of CYP1A2 (unknown origin); type: ADME
[36] = Apparent elimination half life in rat at 2 mg/kg, iv; type: ADME, organism-based; conditions: in vivo, read-out: betat1/2(app) (converted)
[37] = Clearance in monkey at 2 mg/kg, iv; type: ADME, organism-based, Macaca mulatta; conditions: rhesus monkey, in vivo
[38] = Cmax in naive Sprague-Dawley rat plasma at 3 mg/kg, po measured at 5.25 hrs post dose; type: ADME, organism-based; parameters: route oral, time 5.25 hrs, dose 3 mg/kg
[39] = Apparent elimination half life in dog at 2 mg/kg, iv; type: ADME, organism-based, Canis lupus familiaris; conditions: in vivo, read-out: betat1/2(app) (converted)
[40] = Drug concentration in Sprague-Dawley rat spinal cord with CCI induced thermal hyperalgesia at 0.3 mg/kg, po measured at 5.75 hrs post dose; type: ADME, organism-based; conditions: read-out: Ct
[41] = target: T1, Cytochrome P450 3A4; assay: Time dependent inhibition of CYP3A4 (unknown origin) using MDZ as substrate measured at 5 mins; type: ADME
[42] = target: Cytochrome P450 (Homo sapiens, UniProt P04798+P05177+P05181+P08684+P10632+P10635+P11509+P11712+P13584+P20813+P20815+P20853+P24462+P24903+P33260+P33261+P51589+P78329+P98187+Q02928+Q08477+Q16678+Q16696+Q5TCH4+Q6VVX0+Q7Z449+Q8TAV3+Q96SQ9+Q9HB55); assay: Metabolic stability in human liver microsomes assessed as CYP450-mediated metabolism by measuring parent compound remaining at 0.5 uM incubated for 10 mins in presence of NADPH by LC-MS/MS analysis; type: ADME; conditions: read-out: Stability
[43] = target: MAP kinase-interacting serine/threonine-protein kinase 2 (Homo sapiens, UniProt Q9HBH9); assay: Inhibition of MNK2 (unknown origin)
Sequence of MAP kinase-interacting serine/threonine-protein kinase 2 (Q9HBH9 whole entry, looked up): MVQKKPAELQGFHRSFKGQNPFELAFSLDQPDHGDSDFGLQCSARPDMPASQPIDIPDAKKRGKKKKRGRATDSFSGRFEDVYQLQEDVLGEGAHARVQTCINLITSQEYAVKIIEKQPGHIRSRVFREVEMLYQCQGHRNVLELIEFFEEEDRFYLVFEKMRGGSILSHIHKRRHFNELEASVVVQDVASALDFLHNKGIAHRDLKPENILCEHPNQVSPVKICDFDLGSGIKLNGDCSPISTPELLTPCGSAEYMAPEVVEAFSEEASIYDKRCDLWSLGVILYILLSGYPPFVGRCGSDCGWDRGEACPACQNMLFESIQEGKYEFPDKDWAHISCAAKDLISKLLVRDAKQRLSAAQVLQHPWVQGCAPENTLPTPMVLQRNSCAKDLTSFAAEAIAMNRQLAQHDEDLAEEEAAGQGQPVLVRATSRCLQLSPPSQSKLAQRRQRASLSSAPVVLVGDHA

[44] = Tmax in dog at 3 mg/kg, po; type: ADME, organism-based, Canis lupus familiaris; conditions: in vivo
[45] = target: T1, Cytochrome P450 3A4; assay: Time dependent inhibition of CYP3A4 (unknown origin) using BSF as substrate measured at 30 mins; type: ADME
[46] = Tmax in mouse at 3 mg/kg, po; type: ADME, organism-based; conditions: in vivo
[47] = Clearance in mouse at 2 mg/kg, iv; type: ADME, organism-based; conditions: in vivo
[48] = system: Rattus norvegicus; assay: Analgesic activity in CCI induced thermal hyperalgesia Sprague-Dawley rat model assessed as efficacy at 1 mg/kg, po measured at 5.75 hrs post dose; type: functional

Sequence of Serine/threonine-protein kinase LATS2 (Q9NRM7 whole entry): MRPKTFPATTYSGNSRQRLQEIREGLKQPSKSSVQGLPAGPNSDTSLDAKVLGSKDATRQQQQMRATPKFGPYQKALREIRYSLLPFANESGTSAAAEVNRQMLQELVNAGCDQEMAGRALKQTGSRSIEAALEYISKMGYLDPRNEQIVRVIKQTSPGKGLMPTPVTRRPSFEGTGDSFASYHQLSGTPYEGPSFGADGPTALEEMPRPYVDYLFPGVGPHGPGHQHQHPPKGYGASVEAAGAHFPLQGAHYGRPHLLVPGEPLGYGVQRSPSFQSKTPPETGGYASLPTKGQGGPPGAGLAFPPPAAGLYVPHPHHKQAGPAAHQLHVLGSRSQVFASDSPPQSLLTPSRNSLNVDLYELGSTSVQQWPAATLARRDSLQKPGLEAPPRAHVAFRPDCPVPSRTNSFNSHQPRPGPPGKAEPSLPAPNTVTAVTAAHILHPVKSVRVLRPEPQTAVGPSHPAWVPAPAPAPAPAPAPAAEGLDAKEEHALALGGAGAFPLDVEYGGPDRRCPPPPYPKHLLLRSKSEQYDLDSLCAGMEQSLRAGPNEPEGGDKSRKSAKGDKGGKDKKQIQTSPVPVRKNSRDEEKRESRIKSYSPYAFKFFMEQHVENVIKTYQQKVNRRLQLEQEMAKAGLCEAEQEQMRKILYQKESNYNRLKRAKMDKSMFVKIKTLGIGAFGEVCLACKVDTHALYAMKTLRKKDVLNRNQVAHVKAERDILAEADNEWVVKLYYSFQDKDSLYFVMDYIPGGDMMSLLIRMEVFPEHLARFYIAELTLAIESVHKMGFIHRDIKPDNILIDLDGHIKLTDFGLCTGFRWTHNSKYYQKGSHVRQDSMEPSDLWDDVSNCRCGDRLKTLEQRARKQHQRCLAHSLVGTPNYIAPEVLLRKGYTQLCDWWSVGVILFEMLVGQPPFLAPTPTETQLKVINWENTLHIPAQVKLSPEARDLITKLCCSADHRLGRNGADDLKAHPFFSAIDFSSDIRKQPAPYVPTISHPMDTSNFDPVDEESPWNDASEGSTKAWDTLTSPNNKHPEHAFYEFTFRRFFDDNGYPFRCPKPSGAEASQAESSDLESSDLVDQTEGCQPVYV

SMILES: CC(C)C[C@](C)(N)COc1ccc(-c2ccnc(C(F)F)c2)nc1C(F)F [PILAVAPADIN]
- clearance [1]: 28.5 mL/min/kg
- IC50 [2]: 0.66 µM
- Occ [3]: 96%
- Kp at 5.5 h [4]: 8
- Cmax [5]: 63 nM
- Ki [6]: 0.00031 µM
- fraction unbound at 5 h, 10 µM [7]: 0.085
- logD [8]: 1.48
- Kp at 5.25 h [9]: 20
- solubility [10]: 700 µg/mL (≈ 1820 µM)
- solubility [11]: 1400 µg/mL (≈ 3630 µM)
- Cmax [12]: 60 ng/mL
- half-life [13]: 0.212 h
- Efficacy [14]: 60%
- IC50 [15]: > 40 µM
- Cmax [16]: 20 ng/mL
- IC50 [17]: > 30 µM
- IC50 [18]: > 30 µM
- AUC(0-inf) [19]: 270 ng·h/mL
- concentration at 5.25 h [20]: 3860 nM
- IC50 [21]: > 20 µM
- Cmax [22]: 366 nM
- Papp at 4 h [23]: 72.4 ×10⁻⁶ cm/s
- Kp at 5.75 h [24]: 19
- fraction unbound at 5 h, 10 µM [25]: 0.046
- IC50 [26]: > 40 µM
- fraction unbound at 4 h, 1 µM [27]: 0.007
- IC50 [28]: 1.4 µM
- Kp at 5.25 h [29]: 19
- bioavailability [30]: 11%
- Tmax [31]: 3 h
- Cmax [32]: 260 ng/mL
- IC50 [33]: > 30 µM
- Efficacy [34]: 63%
- IC50 [35]: > 20 µM
- half-life [36]: 8.7 h
- clearance [37]: 41.2 mL/min/kg
- Cmax [38]: 200 nM
- half-life [39]: 4.8 h
- concentration at 5.75 h [40]: 431 nM
- IC50 [41]: > 40 µM
- remaining at 10 min, 0.5 µM [42]: 87%
- inhibition [43]: Active
- Tmax [44]: 1.3 h
- IC50 [45]: > 20 µM
- Tmax [46]: 5 h
- clearance [47]: 5 mL/min/kg
- Efficacy [48]: 97%
